Source: the NIST ThermoML archive (doi:10.1016/j.jct.2012.10.008)
Numbers after ± are expanded uncertainties.

Assay: xn = mol fraction of the nth substance listed
Conditions: 101 kPa, Liquid; for viscosity: Falling or rolling sphere viscometry; for mass density: Vibrating tube method

CCCC[NH3+].O=[N+]([O-])[O-] [n-butylammonium nitrate] + CCO
Conditions	mass density, 293.15 K [kg/m3]	mass density, 298.15 K [kg/m3]	mass density, 303.15 K [kg/m3]	mass density, 308.15 K [kg/m3]	mass density, 313.15 K [kg/m3]	viscosity, 293.15 K [mPa·s]	viscosity, 298.15 K [mPa·s]	viscosity, 303.15 K [mPa·s]	viscosity, 308.15 K [mPa·s]	viscosity, 313.15 K [mPa·s]
x1 = 0.0995	858.45 ± 0.18	854.53 ± 0.18	850.59 ± 0.18	846.63 ± 0.18	842.66 ± 0.19	2.5 ± 0.021	2.251 ± 0.019	2.036 ± 0.017	1.846 ± 0.016	1.682 ± 0.014
x1 = 0.1997	910.07 ± 0.3	906.36 ± 0.3	902.64 ± 0.3	898.9 ± 0.3	895.16 ± 0.3	4.379 ± 0.043	3.895 ± 0.038	3.486 ± 0.034	3.134 ± 0.031	2.827 ± 0.028
x1 = 0.2999	951.56 ± 0.55	947.99 ± 0.55	944.41 ± 0.54	940.85 ± 0.54	937.28 ± 0.54	7.388 ± 0.084	6.633 ± 0.076	5.868 ± 0.067	5.192 ± 0.059	4.591 ± 0.052
x1 = 0.3998	985.07 ± 0.93	981.61 ± 0.92	978.16 ± 0.92	974.71 ± 0.91	971.27 ± 0.91	12.29 ± 0.16	10.67 ± 0.14	9.285 ± 0.12	8.205 ± 0.11	7.25 ± 0.096
x1 = 0.5005	1012.9 ± 1.5	1009.57 ± 1.4	1006.2 ± 1.4	1003.2 ± 1.4	999.76 ± 1.4	18.53 ± 0.28	15.89 ± 0.24	13.78 ± 0.21	12.04 ± 0.18	10.57 ± 0.16
x1 = 0.6501	1047.63 ± 2.6	1044.37 ± 2.5	1041.1 ± 2.5	1037.86 ± 2.5	1034.62 ± 2.5	32.66 ± 0.6	27.42 ± 0.5	23.15 ± 0.42	19.83 ± 0.36	17.12 ± 0.31
x1 = 0.8003	1075.57 ± 4	1072.36 ± 4	1069.17 ± 4	1066 ± 4	1062.84 ± 3.9	56.97 ± 1.2	46.57 ± 1	38.82 ± 0.84	32.55 ± 0.7	27.74 ± 0.6
x1 = 0.8989	1090.94 ± 5.2	1087.76 ± 5.2	1084.6 ± 5.2	1081.46 ± 5.1	1078.34 ± 5.1	79.51 ± 2.2	65.34 ± 1.6	53.93 ± 1.2	44.86 ± 1.1	37.86 ± 0.9
x1 = 1	1104.68 ± 6.6	1101.52 ± 6.6	1098.38 ± 6.5	1095.26 ± 6.5	1092.17 ± 6.5	111.35 ± 4.1	89.95 ± 2.9	73.04 ± 2.1	60.25 ± 1.6	50.12 ± 1.3

CCCC[NH3+].O=[N+]([O-])[O-] [n-butylammonium nitrate] + CCCO
Conditions	mass density, 293.15 K [kg/m3]	mass density, 298.15 K [kg/m3]	mass density, 303.15 K [kg/m3]	mass density, 308.15 K [kg/m3]	mass density, 313.15 K [kg/m3]	viscosity, 293.15 K [mPa·s]	viscosity, 298.15 K [mPa·s]	viscosity, 303.15 K [mPa·s]	viscosity, 308.15 K [mPa·s]	viscosity, 313.15 K [mPa·s]
x1 = 0.0999	855.12 ± 0.18	851.36 ± 0.18	847.56 ± 0.18	843.75 ± 0.18	839.91 ± 0.18	4.091 ± 0.035	3.599 ± 0.031	3.182 ± 0.027	2.824 ± 0.024	2.516 ± 0.021
x1 = 0.2004	898.27 ± 0.3	894.64 ± 0.3	890.99 ± 0.3	887.32 ± 0.3	883.65 ± 0.3	6.691 ± 0.065	5.828 ± 0.057	5.108 ± 0.05	4.503 ± 0.044	3.989 ± 0.039
x1 = 0.2994	935.27 ± 0.54	931.74 ± 0.53	928.19 ± 0.53	924.64 ± 0.53	921.09 ± 0.53	10.45 ± 0.12	8.998 ± 0.1	7.81 ± 0.089	6.822 ± 0.078	6.009 ± 0.068
x1 = 0.4007	968.52 ± 0.91	965.08 ± 0.9	961.63 ± 0.9	958.18 ± 0.89	954.74 ± 0.89	16.54 ± 0.22	14.11 ± 0.19	12.11 ± 0.16	10.49 ± 0.14	9.207 ± 0.12
x1 = 0.4995	997.32 ± 1.4	993.96 ± 1.4	990.59 ± 1.4	987.23 ± 1.4	983.88 ± 1.4	22.52 ± 0.34	19.08 ± 0.29	16.29 ± 0.25	14.05 ± 0.21	12.19 ± 0.19
x1 = 0.6495	1035.44 ± 2.5	1032.16 ± 2.5	1028.88 ± 2.5	1025.62 ± 2.4	1022.36 ± 2.4	38.05 ± 0.7	31.62 ± 0.58	26.59 ± 0.49	22.59 ± 0.41	19.39 ± 0.36
x1 = 0.7978	1067.64 ± 4	1064.42 ± 3.9	1061.21 ± 3.9	1058.02 ± 3.9	1054.86 ± 3.9	61.01 ± 1.3	49.83 ± 1.1	41.2 ± 0.89	34.54 ± 0.75	29.21 ± 0.63
x1 = 0.9008	1087.69 ± 5.2	1084.51 ± 5.2	1081.34 ± 5.2	1078.19 ± 5.1	1075.07 ± 5.1	83.36 ± 2.4	67.14 ± 1.7	55.16 ± 1.3	46.11 ± 1.1	40.09 ± 0.96
x1 = 1	1104.68 ± 6.6	1101.52 ± 6.6	1098.38 ± 6.5	1095.26 ± 6.5	1092.17 ± 6.5	111.35 ± 4.1	89.95 ± 2.9	73.04 ± 2.1	60.25 ± 1.6	50.12 ± 1.3
